Columns and labels:
[1] = system: TAT reactive rat vascular smooth muscle cell clones; assay: Cell proliferation potency by TAT after GPC3 knockdown with shRNA adenovirus ([methyl 3H] thymidine uptake); format: cell-based; conditions: adenovirus infection at MOI=10; compared to cells infected GFPi or LacZ used as a control; FIG. 3
Method: Adenovirus carrying GFPi or GPC3i was added to cells on a 10 cm laboratory dish at infectious MOI=10 to infect. The cells were moved on a 24-well plate 1 day after infection and cultured under the absence of blood serum for 24 hours. After that, thymidine taken in cells by the stimulus of TAT was measured.
Each of adenovirus inserted shRNA of Glypican 3 (GPC3) (GPC3i), adenovirus inserted shRNA of Green fluorescent protein (GFP) (GFPi) and adenovirus not inserted shRNA (LacZ) was infected to TAT reactive rat vascular smooth muscle cell clones. Cell proliferation potency by TAT was measured by uptake of [methyl 3H] thymidine according an experiment method.

[2] = system: vascular smooth muscle cells; assay: Proliferation reaction of vascular smooth muscle cells by human TAT ([methyl 3H] thymidine uptake); format: cell-based, rat; conditions: serum-free; only some (TAT reactive) vascular smooth muscle cells respond
Method: Vascular smooth muscle cells were plated in a 96-well plate at a density of 2×10^3/well and cultured under the same condition as Example 1. After 3 days, the medium was changed with DMEM containing 0.05% bovine serum albumin. After culturing for one more day, the medium was changed again with new DMEM containing 0.05% bovine serum albumin and TAT was added thereto. After 20 hours from addition of TAT, 0.05 μCi/well [methyl 3H] thymidine was added thereto and the cells were cultured for 2 hours. After washing cells twice with 5% trichloroacetic acid, Super mix (PerkinElmer, Inc.) was added thereto and radioactivity derived from [methyl 3H] thymidine taken in cells was measured by Micro Beta (PerkinEimer, Inc.) (FIG. 1).

## GPC3i: adenovirus inserted shRNA of Glypican 3 (GPC3), sequence SEQ ID: 2 (guide GAACTACACCAATGCCATGTT)
[1]
  cell proliferation by stimulus of TAT: remarkably decreased

## thrombin-antithrombin III complex [TAT]
[2]
  proliferation of vascular smooth muscle cells: proliferate some cells of vascular smooth muscle cells at very low concentration

Source: patent publication US7759083B2, “Screening method for a growth inhibitor or promoter of a vascular smooth muscle cell” (Shionogi & Co., Ltd., priority 2004, dated 2010)
